Measured values reported in paper PMC11528023, “Transport mechanism and structural pharmacology of human urate transporter URAT1” (Cell Research, 2024).

Target: T1, URAT1 F449A (Homo sapiens, UniProt Q96S37, F449A)
T1 construct: expressed in transfected cells; host or cells: HEK293 cells (ATCC, CRL-3216), transient transfection
T1 sequence (Q96S37 1-553 F449A): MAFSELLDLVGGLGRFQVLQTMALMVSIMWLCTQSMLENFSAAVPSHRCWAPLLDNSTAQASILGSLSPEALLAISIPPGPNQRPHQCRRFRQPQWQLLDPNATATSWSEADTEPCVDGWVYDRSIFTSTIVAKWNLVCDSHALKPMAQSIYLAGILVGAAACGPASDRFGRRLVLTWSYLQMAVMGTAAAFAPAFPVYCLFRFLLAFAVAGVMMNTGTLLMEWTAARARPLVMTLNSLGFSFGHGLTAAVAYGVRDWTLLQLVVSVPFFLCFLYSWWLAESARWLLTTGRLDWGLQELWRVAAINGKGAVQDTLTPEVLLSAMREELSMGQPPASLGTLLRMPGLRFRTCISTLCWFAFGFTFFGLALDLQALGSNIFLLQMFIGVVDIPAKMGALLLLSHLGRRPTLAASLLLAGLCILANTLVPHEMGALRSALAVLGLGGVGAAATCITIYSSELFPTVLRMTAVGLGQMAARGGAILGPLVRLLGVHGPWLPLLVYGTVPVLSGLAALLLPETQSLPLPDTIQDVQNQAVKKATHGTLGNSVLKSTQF
Type: cell-based
Details: dose-response of 14C-urate uptake, Fig. 6c
From the text: Fig. 6 Dotinurad inhibition and the mechanism of URAT1 transport. a Structure of dotinurad-bound URAT1. Detailed interactions between dotinurad and URAT1 are shown on the right. b Dotinurad-binding pocket, depicted in a top view looking down from the extracellular side. c Dose-response curves of URAT1 variants with mutations in the dotinurad-binding site, using the same buffer as defined in Fig. 1 legend. Data are shown as mean ± SD; n = 3 biological replicates. d Comparison between the dotinurad-bound and apo structures. e Schematic diagram of URAT1 importing urate. […]
Human embryonic kidney (HEK) 293 cells (ATCC, CRL-3216) were seeded onto poly(D-lysine)-coated 96-well plates at a density of 0.3 × 10^5 cells per well and cultured at 37 °C until reaching approximately 70%–80% confluence. […] The cells were then lysed in 0.1 M NaOH, and the lysed samples were added to scintillation liquid to measure radioactivity using a PerkinElmer Microbeta2 counter.
For dose-response assays, the cells were incubated with urate and increasing concentrations of inhibitors. […] Nonspecific uptake was measured in each plate in non-transfected cells, and this value was subtracted from the total uptake to obtain the URAT1-specific uptake. To compare the uptake signals among URAT1 variants, the mVenus fluorescence intensity of each construct was measured using fluorescence-detection size-exclusion chromatography[49] […]

For `O=C(c1cc(Cl)c(O)c(Cl)c1)N1CS(=O)(=O)c2ccccc21` [dotinurad], the “Effect of F449A mutation on drug sensitivity” value was “completely eliminating URAT1’s sensitivity”.
